# Laboratory results as given in patent publication US8618303B2, “Pyrrolidine derivatives” (Hoffmann-La Roche Inc., priority 2011, dated 2013).
# Test system: not given
# Experiment: not given
# Details: phase II trial; cited from earlier work
Structure (SMILES),activity on negative symptoms of schizophrenia,activity on positive symptoms of schizophrenia
"CC(=O)N(C)C1(c2ccccc2)CCN(CCC[C@]2(c3ccc(Cl)c(Cl)c3)CCCN(C(=O)c3ccccc3)C2)CC1 [SR 142,801, Osanetant]",inactive in the treatment of negative symptoms,active on positive symptoms of schizophrenia

# Molecular target: human NK3 receptor (Homo sapiens (Human), UniProt P29371)
# Sequence (P29371 whole entry): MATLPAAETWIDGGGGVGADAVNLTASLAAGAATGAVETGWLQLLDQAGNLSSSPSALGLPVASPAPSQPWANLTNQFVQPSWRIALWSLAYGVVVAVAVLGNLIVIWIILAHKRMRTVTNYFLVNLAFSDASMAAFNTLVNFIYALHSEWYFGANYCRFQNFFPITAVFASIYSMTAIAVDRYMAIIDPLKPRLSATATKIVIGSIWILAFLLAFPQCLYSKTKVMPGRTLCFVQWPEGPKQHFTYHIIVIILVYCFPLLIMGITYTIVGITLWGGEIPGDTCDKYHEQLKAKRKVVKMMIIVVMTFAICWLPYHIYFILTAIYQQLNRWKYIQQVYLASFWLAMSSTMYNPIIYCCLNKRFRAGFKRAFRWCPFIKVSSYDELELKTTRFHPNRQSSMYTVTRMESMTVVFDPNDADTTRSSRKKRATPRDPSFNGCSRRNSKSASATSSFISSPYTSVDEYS
# Experiment: [3H]SR142801 competition binding assay
# Details: not given
# Method: hNK3 receptor binding experiment were performed using [^3H]SR142801 (Catalog No. TRK1035, specific activity: 74.0 Ci/mmol, Amersham, GE Healthcare UK limited, Buckinghamshire, UK) and membrane isolated from HEK293 cells transiently expressing recombinant human NK3 receptor. After thawing, the membrane homogenates were centrifuged at 48,000×g for 10 min at 4° C., the pellets were resuspended in the 50 mM Tris-HCl, 4 mM MnCl2, 1 μM phosphoramidon, 0.1% BSA binding buffer at pH 7.4 to a final assay concentration of 5 μg protein/well. […] At the end of the incubation, membranes were filtered onto unitfilter (96-well white microplate with bonded GF/C filter preincubated 1 h in 0.3% PEI+0.3% BSA, Packard BioScience, Meriden, Conn.) with a Filtermate 196 harvester (Packard BioScience) and washed 4 times with ice-cold 50 mM Tris-HCl, pH 7.4 buffer. Nonspecific binding was measured in the presence of 10μM SB222200 for both radioligands. The radioactivity on the filter was counted (5 min) on a Packard Top-count microplate scintillation counter with quenching correction after addition of 45 μl of microscint 40 (Canberra Packard S.A., Ziirich, Switzerland) and shaking for 1 h. Inhibition curves were fitted according to the Hill equation: y=100/(1+(x/IC50), where nH=slope factor using Excel-fit 4 software (Microsoft). IC50 values were derived from the inhibition curve and the affinity constant (Ki) values were calculated using the Cheng-Prussoff equation Ki =IC50/(1+[L]/KD) where [L] is the concentration of radioligand and KD is its dissociation constant at the receptor, derived from the saturation isotherm. All experiments were performed in duplicate and the mean±standard error (SEM) of the individual Ki values was calculated.
row,Structure (SMILES),Ki
1,"CN(C(=O)Oc1ccc(F)cc1)[C@@]1(C)CN(C(=O)C2CCN(c3ccc(F)cn3)CC2)C[C@@H]1c1ccc(Cl)cc1 (racemic) [Example 12, rac-[(3R,4S)-4-(4-Chloro-phenyl)-1-(5′-fluoro-3,4,5,6-tetrahydro-2H-[1,2′]bipyridinyl-4-carbonyl)-3-methyl-pyrrolidin-3-yl]-methyl-carbamic acid 4-fluoro-phenyl ester]",0.0076 µM
2,"CN(C(=O)Oc1ccc(F)cc1)[C@@H]1CN(C(=O)C2CCN(c3ccc(F)cn3)CC2)C[C@@]1(C)c1ccc(Cl)cc1 (racemic) [Example 23, rac-[(3S,4R)-4-(4-Chloro-phenyl)-1-(5′-fluoro-3,4,5,6-tetrahydro-2H-[1,2′]bipyridinyl-4-carbonyl)-4-methyl-pyrrolidin-3-yl]-methyl-carbamic acid 4-fluoro-phenyl ester]",0.0435 µM

# Same assay, conditions: membranes from HEK293 cells transiently expressing recombinant human NK3 receptor; [3H]SR142801; Ki from IC50 by Cheng-Prussoff; read-out: Ki (uM) hNK3
row,Structure (SMILES),Ki
1,"CC(=O)c1ccc(N2CCC(C(=O)N3C[C@H](c4ccc(Cl)cc4)[C@@](C)(N(C)C(=O)Oc4ccc(F)cc4)C3)CC2)nc1 (racemic) [Example 11, rac-[(3R,4S)-1-(5′-Acetyl-3,4,5,6-tetrahydro-2H-[1,2′]bipyridinyl-4-carbonyl)-4-(4-chloro-phenyl)-3-methyl-pyrrolidin-3-yl]-methyl-carbamic acid 4-fluoro-phenyl ester]",0.0045 µM
2,"CN(C(=O)Oc1ccc(F)cc1)[C@@]1(C)CN(C(=O)C2CCN(c3ccc(Cl)cn3)CC2)C[C@@H]1c1ccc(Cl)cc1 (racemic) [Example 13, rac-[(3R,4S)-4-(4-Chloro-phenyl)-1-(5′-chloro-3,4,5,6-tetrahydro-2H-[1,2′]bipyridinyl-4-carbonyl)-3-methyl-pyrrolidin-3-yl]-methyl-carbamic acid 4-fluoro-phenyl ester]",0.01 µM
3,"Cc1cc(C(=O)N2C[C@H](c3ccc(Cl)cc3)[C@@](C)(N(C)C(=O)Oc3ccc(F)cc3)C2)cnn1 (racemic) [Example 6, rac-[(3R,4S)-4-(4-Chloro-phenyl)-3-methyl-1-(6-methyl-pyridazine-4-carbonyl)-pyrrolidin-3-yl]-methyl-carbamic acid 4-fluoro-phenyl ester]",0.0649 µM
4,"Cc1nc(-c2ccc(C(=O)N3C[C@H](c4ccc(Cl)cc4)[C@@](C)(N(C)C(=O)Oc4ccc(F)cc4)C3)cc2)no1 (racemic) [Example 17, rac-{(3R,4S)-4-(4-Chloro-phenyl)-3-methyl-1-[4-(5-methyl-[1,2,4]oxadiazol-3-yl)-benzoyl]-pyrrolidin-3-yl}-methyl-carbamic acid 4-fluoro-phenyl ester]",0.0354 µM
5,"CN(C(=O)Oc1ccc(F)cc1)[C@@H]1CN(C(=O)C2CCN(c3ccc(Cl)cn3)CC2)C[C@@]1(C)c1ccc(Cl)cc1 (racemic) [Example 32, rac-[(3S,4R)-4-(4-Chloro-phenyl)-1-(5′-chloro-3,4,5,6-tetrahydro-2H-[1,2′]bipyridinyl-4-carbonyl)-4-methyl-pyrrolidin-3-yl]-methyl-carbamic acid 4-fluoro-phenyl ester]",0.0099 µM
6,"CN(C(=O)Oc1ccc(F)cc1)[C@@H]1CN(C(=O)c2ccc(C#N)cc2)C[C@@]1(C)c1ccc(Cl)cc1 (racemic) [Example 26, rac-[(3S,4R)-4-(4-Chloro-phenyl)-1-(4-cyano-benzoyl)-4-methyl-pyrrolidin-3-yl]-methyl-carbamic acid 4-fluoro-phenyl ester]",0.629 µM
7,"CN(C(=O)Oc1ccc(F)cc1)[C@@H]1CN(C(=O)c2ccc(N3CCCCC3=O)cc2)C[C@@]1(C)c1ccc(Cl)cc1 (racemic) [Example 36, rac-{(3S,4R)-4-(4-Chloro-phenyl)-4-methyl-1-[4-(2-oxo-piperidin-1-yl)-benzoyl]-pyrrolidin-3-yl}-methyl-carbamic acid 4-fluoro-phenyl ester]",0.997 µM
8,"CN(C(=O)Oc1ccc(F)cc1)[C@@]1(C)CN(C(=O)c2ccc(N3CCCCC3=O)cc2)C[C@@H]1c1ccc(Cl)cc1 (racemic) [Example 20, rac-{(3R,4S)-4-(4-Chloro-phenyl)-3-methyl-1-[4-(2-oxo-piperidin-1-yl)-benzoyl]-pyrrolidin-3-yl}-methyl-carbamic acid 4-fluoro-phenyl ester]",0.276 µM
9,"CN(C(=O)Oc1ccc(F)cc1)[C@@]1(C)CN(C(=O)C2CCN(c3ccc(C(F)(F)F)cn3)CC2)C[C@@H]1c1ccc(Cl)cc1 (racemic) [Example 15, rac-[(3R,4S)-4-(4-Chloro-phenyl)-3-methyl-1-(5′-trifluoromethyl-3,4,5,6-tetrahydro-2H-[1,2′]bipyridinyl-4-carbonyl)-pyrrolidin-3-yl]-methyl-carbamic acid 4-fluoro-phenyl ester]",0.0115 µM
10,"COc1ccc(N2CCC(C(=O)N3C[C@H](c4ccc(Cl)cc4)[C@@](C)(N(C)C(=O)Oc4ccc(F)cc4)C3)CC2)nn1 (racemic) [Example 19, rac-{(3R,4S)-4-(4-Chloro-phenyl)-1-[1-(6-methoxy-pyridazin-3-yl)-piperidine-4-carbonyl]-3-methyl-pyrrolidin-3-yl}-methyl-carbamic acid 4-fluoro-phenyl ester]",0.0129 µM
11,"CN(C(=O)Oc1ccc(F)cc1)[C@@]1(C)CN(C(=O)c2ccc(C#N)cc2)C[C@@H]1c1ccc(Cl)cc1 (racemic) [Example 3, rac-[(3R,4S)-4-(4-Chloro-phenyl)-1-(4-cyano-benzoyl)-3-methyl-pyrrolidin-3-yl]-methyl-carbamic acid 4-fluoro-phenyl ester]",0.0678 µM
